Some test systems named below: LXFL 529 NSCLC; KM20L2 colon; RXF-631 renal; NCI/ADR-RES ovarian; MDA-N; MDA-MB-231 breast; DU-145 prostate; BT-549 breast; SNB-78 CNS.
What all share (assay): NCI-60 cell line screen, 48 h

Structures are written as SMILES.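 All cell lines were grown in 96-well plates and treated with compound for 48 hours. GI50 = concentration required for 50% inhibition of growth. At the TGI there is no net growth.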

Regarding `COc1cccc(C(=O)C2C(=O)N(C)CCc3ccccc32)c1OC` (stereo not drawn), the TGI in the test on LXFL 529 NSCLC, with KM20L2 colon and in the test with RXF-631 renal was over 100 µM throughout.

Take `O=NNc1nc(-c2cccnc2)nc2ccccc12`: the TGI with NCI/ADR-RES ovarian, with MDA-N, in the test with MDA-MB-231 breast, in the test with DU-145 prostate and in the test on BT-549 breast was over 100 µM throughout.

With `CN(C)C(=S)N=Nc1c(O)[nH]c2ccccc12`, the GI50 is 0.334 µM in the test on NCI/ADR-RES ovarian, 1.11 µM in the test with MDA-MB-231 breast, 0.955 µM in the test with DU-145 prostate and 0.763 µM in the test on BT-549 breast. Further, the TGI came out at 2.15 µM with NCI/ADR-RES ovarian, 17.6 µM with MDA-MB-231 breast, 11.4 µM in the test on DU-145 prostate and 20.8 µM with BT-549 breast.

In the case of `COc1c(N2CCN(CN3C(=O)C(=Nc4ccc(S(=O)(=O)Nc5ncccn5)cc4)c4ccccc43)C(C)C2)c(F)cc2c(=O)c(C(=O)O)cn(C3CC3)c12` (stereo not drawn), the GI50 was 23.2 µM in the test with NCI/ADR-RES ovarian, over 50 µM with MDA-MB-231 breast, 11.2 µM in the test with DU-145 prostate and 19.6 µM in the test on BT-549 breast. Further, the TGI was over 50 µM in the test with NCI/ADR-RES ovarian, over 50 µM with MDA-MB-231 breast, 35.2 µM with DU-145 prostate and over 50 µM in the test on BT-549 breast.

In the case of `CCCCCCCCCCCCCCCC(=O)OCC1OC(n2c(O)c(N=NC(N)=S)c3ccc([N+](=O)[O-])cc32)C(OC(C)=O)C1OC(C)=O` (stereo not drawn), the TGI with SNB-78 CNS, in the test on LXFL 529 NSCLC, with KM20L2 colon and in the test with RXF-631 renal was over 100 µM throughout.

As for `CCC(CC)n1c(C)nc2c1C(=O)c1ccccc1C2=O`, the TGI in the test with SNB-78 CNS, in the test with LXFL 529 NSCLC and in the test with KM20L2 colon was over 100 µM each time.

Take `CCCCn1cnc2c(SC)ncnc21`: the TGI in the test with NCI/ADR-RES ovarian, with MDA-N, in the test on MDA-MB-231 breast, in the test with DU-145 prostate and in the test on BT-549 breast was over 100 µM each time.

As to `CC(=O)Oc1ccc(O)c(O)c1C/C=C(\C)CC/C=C(\C)CC/C=C(\C)CCC=C(C)C`, the TGI was 1.34 µM with SNB-78 CNS, 1.05 µM with LXFL 529 NSCLC and 3.74 µM with KM20L2 colon.

Turning to `CC(C)CC1=[N+]=C(NC#N)N=C(CCC(=O)Nc2ccccc2[N+](=O)[O-])C1`, the TGI with LXFL 529 NSCLC and with KM20L2 colon was over 100 µM in each case.

`COc1ccc(C2S/C(=C\c3ccc(O)cc3)C(=O)N2NC(=O)Cc2ccccc2)cc1` (stereo not drawn) showed a TGI in the test with LXFL 529 NSCLC of over 100 µM.

Consider `CC(=O)OC1c2ccccc2CCCCCCC12OCCO2` (stereo not drawn), for which the TGI in the test on SNB-78 CNS and in the test with KM20L2 colon was over 100 µM throughout.

On to `COc1ccc2c(c1)OC(N(C(C)=O)C(C)=O)=C(C#N)C2c1ccc(F)cc1` (stereo not drawn), for which the GI50 is 0.953 µM in the test on NCI/ADR-RES ovarian, 2.4 µM in the test with MDA-MB-231 breast, 2.85 µM in the test with DU-145 prostate and 2.22 µM with BT-549 breast. The TGI in the test on NCI/ADR-RES ovarian was over 100 µM; in the test on MDA-MB-231 breast, over 100 µM; in the test with DU-145 prostate, over 100 µM; in the test with BT-549 breast it was 40.2 µM.

In the case of `Fc1cccc(COc2ccc(Nc3ncnc4cc(-c5ccc[nH]5)sc34)cc2Cl)c1`, the GI50 in the test with NCI/ADR-RES ovarian was 3.29 µM; in the test with MDA-MB-231 breast, 0.734 µM; in the test with DU-145 prostate it was 3.34 µM; with BT-549 breast, 0.977 µM. Also, the TGI with NCI/ADR-RES ovarian was over 25 µM; in the test on MDA-MB-231 breast, over 15.7 µM; in the test with DU-145 prostate, over 16.4 µM; in the test with BT-549 breast it was 14.9 µM.

`COc1ccc(O)c(C#N)c1C#N`: the TGI in the test with SNB-78 CNS, in the test on LXFL 529 NSCLC and with KM20L2 colon was over 100 µM throughout.

With `O=C1/C(=C/c2ccc(O)cc2)COc2ccc(-c3ccccc3)cc21`, the GI50 in the test on NCI/ADR-RES ovarian was 10.9 µM; in the test on MDA-MB-231 breast, 8.25 µM; with DU-145 prostate, 4.09 µM; in the test with BT-549 breast, 2.64 µM. In addition, the TGI in the test on NCI/ADR-RES ovarian was 53.9 µM; in the test with MDA-MB-231 breast, 27.3 µM; in the test with DU-145 prostate it was 14.6 µM; in the test on BT-549 breast it was 13 µM.

On to `COc1cccc(C2c3cc4c(cc3OC(O)(CO)C2C(=O)O)OCO4)c1` (stereo not drawn) (tested in a mixture with another compound), for which the TGI in the test on LXFL 529 NSCLC, with KM20L2 colon and with RXF-631 renal was over 100 µM throughout.

Regarding `S=c1[nH]c2ccc(Br)cc2c(=S)n1-c1ccccc1`, the TGI with SNB-78 CNS, with KM20L2 colon and with RXF-631 renal was over 100 µM throughout.

With `CN(C)CCOc1ccc2c(c1)C/C(=C/c1ncc([N+](=O)[O-])n1C)C2=O`, the TGI was found to be 34.1 µM in the test on NCI/ADR-RES ovarian; 16.8 µM with MDA-N; 8.42 µM in the test with MDA-MB-231 breast; 14 µM in the test on DU-145 prostate; 3.74 µM in the test with BT-549 breast.

As to `CC1OC2CC(=O)OC2C2=C1C(=O)c1c(O)c3c(c(O)c1C2=O)C1CC(O)C3(O)C(C)O1` (stereo not drawn), the GI50 in the test on NCI/ADR-RES ovarian is 0.273 µM; in the test on MDA-MB-231 breast it was 0.25 µM; in the test on DU-145 prostate, 1.38 µM; in the test on BT-549 breast, 1.1 µM. Also, the TGI in the test on NCI/ADR-RES ovarian is 0.917 µM; in the test with MDA-MB-231 breast, 0.712 µM; with DU-145 prostate it was 2.69 µM; in the test with BT-549 breast, 2.32 µM.

Regarding `COc1ccc2c3c(c(=O)n(C)c2c1OC)C=CC(C)(C)O3`, the TGI with NCI/ADR-RES ovarian was 64.3 µM; in the test with MDA-N, 62.2 µM; in the test on MDA-MB-231 breast it was 54 µM; in the test on DU-145 prostate it was over 100 µM; with BT-549 breast, over 100 µM.

Consider `CC(C)NC(=O)OCCS(=O)c1c(Cl)c(Cl)nn1C` (stereo not drawn), for which the TGI in the test with NCI/ADR-RES ovarian is over 100 µM; with MDA-N, over 100 µM; in the test on MDA-MB-231 breast, 70.7 µM; with DU-145 prostate it was over 100 µM.

For the compound `O=c1cc(-c2ccccc2)c2cc3c(=O)ccoc3cc2o1`, the TGI in the test on KM20L2 colon was over 100 µM.

`Cn1ccnc1C(=O)/C=C/c1ccc(CC(=O)Nc2ccccc2)cc1`: the GI50 with NCI/ADR-RES ovarian is 7.54 µM; in the test on MDA-MB-231 breast it was 2.37 µM; with DU-145 prostate, 1.1 µM; in the test with BT-549 breast, 2.95 µM. Also, the TGI with NCI/ADR-RES ovarian was over 25 µM; with MDA-MB-231 breast it was 9.61 µM; in the test on DU-145 prostate, 4.03 µM; with BT-549 breast, 7.54 µM.

The values above are taken from PubChem BioAssay (NCI).
